According to US7867979B2, “Drug composition for treating 2 type diabetes and diabetic chronicity complications” (Hainan Deze Drug Research Co., Ltd., priority 2006, dated 2011):
Like-named read-outs stand apart in the source and are kept apart here.

Key:
[1] = Pharmacokinetics of the composition after oral administration; format: in vivo; conditions: rats, serum; for AUC(0-inf) / Cmax: rat
Description: Mangiferin is suspended in 1% carboxymethyl cellulose sodium solution, the concentration of mangiferin is 25 mg/mL (Sample A).
Berberine is suspended in 1% carboxymethyl cellulose sodium solution, the concentration of berberine is 25 mg/mL (Sample B). The composition which is composed of mangiferin and berberine in the ratio of 1:4 is suspended in 1% carboxymethyl cellulose sodium solution, the concentration of the composition is 50 mg/mL (Sample C).
All rats were fasted for 16 hours and drunk water freely. The rats are oral administrated respectively sample A (40 mg/kg), sample B (160 mg/kg) and sample C (200 mg/kg). From the rats, 0.4 ml blood samples were taken respectively at the time of 5 minutes before oral administrated and 0 h, 1 h, 2 h, 3 h, 4 h, 5 h, 6 h, 8 h, 10 h, 12 h, 15 h, and 24 h after oral administrated. These blood samples were put into centrifuge tube containing heparin, then were centrifuged for 10 minutes, the serum is obtained.
Serum samples are taken accurately 100 μL into centrifuge tubes, then 400 μL acetonitrile-acetic acid (9:1) is added into centrifuge tubes. The samples are whorled for 1.5 minutes, and then the samples are centrifuged 3000 r/min for 10 minutes. The supernatant was put into clear tube, dried by nitrogen, 100 μL mobile phase were put into the remnants, whorled for 1.5 minutes, then centrifuged 3000 r/min for 10 minutes. The Supernatant was put into sample bottle. All the samples are determined by HPLC. Injection volume is 20 μL.
4.1 Apparatus: Angilent 1100 HPLC (American Agilent Co.): include G1312A dual pump and G1313A Auto-Sampler.
Chromatographic column: discover ODS column (250 mm×6 mm, 5 μm);
The mobile phase: methanol-0.1% H3PO4 water.
Velocity of flow: 1.0 ml/min.
Detection Wavelength: 264 nm.

[2] = test system: Superoxidedismutase (SOD); experiment: Superoxidedismutase (SOD) in kidney tissue homogenate of GK rats; format: in vivo, Goto-Kakizaki rats (GK); conditions: oral daily 12 weeks
Description: GK rats control group (n=10); mangiferin groups (10, 30, 200 mg/kg, each group 10 rats); berberine groups (10, 20, 150 mg/kg, each group 10 rats); composition group 1[[mangiferin (10 mg/kg)+berberine (10 mg/kg)], 10 rats]; composition group 2[[mangiferin (200 mg/kg)+berberine (150 mg/kg)], 10 rats]. Wistar rats are normal control group (10 rats). GK rats control group and Wistar rats group were given saline. The other groups were given test drugs. Test samples were administrated orally at the same time every day for 12 weeks. 3.3.1 Preparation of tissue homogenate: Rats were killed by femoral artery bloodletting after administration of the rats for 12-weeks. Kidney tissue of the rats were taken, the blood of kidney tissue were washed with cooling saline (4° C.), then the remnant water was absorbed with filter paper, the kidney tissue was weighed. Per gram kidney tissue was added into 10 ml saline, which was put in homogenized machine (10,000 r/min, 10 seconds, 3rd), 10% tissue homogenate was prepared, the tissue homogenate was centrifuged (4000 r/min) for 10 minutes to get supernatant, the supernatant was saved in −20° C. for determination. […] SOD is determined by Xanthine Oxidase calorimetric analysis, the test box was bought from Nanjing Jiancheng Bioengineering Research Institute. […] The results have been calculated as mean±SD ( x±SD) and the comparisons of the data have been done by t-test. There are ten rats in every group. GK rats control group and wistar rats group were given saline. The other groups were given test drugs. Test samples were administrated orally at the same time every day for 12 weeks. The measurements are as same as the above experiment.

[3] = 2.0 g once orally; cited from earlier work
[4] = in vivo; cited from earlier work
[5] = cited from earlier work
rat = conditions: intraperitoneal injection once; cited from earlier work

Row | AUC(0-inf) ([1]; sample B 160 mg/kg or sample C (1:4) 200 mg/kg, read-out: AUC0-∞ of berberine) | Cmax ([1]; sample B 160 mg/kg or sample C (1:4) 200 mg/kg, read-out: Cmax of berberine) | T1/2β of berberine ([1]; sample B 160 mg/kg or sample C (1:4) 200 mg/kg) | SMILES | Measurements about oxidation SOD ([2]; 10 mg/kg) | Measurements about oxidation SOD ([2]; 20 mg/kg) | Measurements about oxidation SOD ([2]; 150 mg/kg) | Adverse reactions [3] | Bioavailability [4] | AUC(0-inf) ([1]; sample A 40 mg/kg or sample C (1:4) 200 mg/kg, read-out: AUC0-∞ of mangiferin) | Cmax ([1]; sample A 40 mg/kg or sample C (1:4) 200 mg/kg, read-out: Cmax of mangiferin) | T1/2β of mangiferin ([1]; sample A 40 mg/kg or sample C (1:4) 200 mg/kg) | Measurements about oxidation SOD ([2]; 30 mg/kg) | Measurements about oxidation SOD ([2]; 200 mg/kg) | Solubility in water [5] | LD50 (rat)
1 | 3440 ± 250 µg·h/mL | 54100 ± 2600 ng/mL | 3.5 ± 0.3 h | COc1ccc2cc3[n+](cc2c1OC)CCc1cc2c(cc1-3)OCO2 [Berberine] | 131.56 ± 23.49 U/mg pro | 170.04 ± 13.49 U/mg pro | 195.10 ± 13.71 U/mg pro | we don't find any adverse reactions | very low | – | – | – | – | – | – | –
2 | – | – | – | O=c1c2cc(O)c(O)cc2oc2cc(O)c([C@@H]3O[C@H](CO)[C@@H](O)[C@H](O)[C@H]3O)c(O)c12 [Mangiferin] | 130.74 ± 23.47 U/mg pro | – | – | – | – | 1200 ± 391 µg·h/mL | 18600 ± 1500 ng/mL | 4.3 ± 0.4 h | 168.23 ± 13.46 U/mg pro | 194.15 ± 13.55 U/mg pro | cannot dissolve in water | 365 mg/kg
